Assay results reported in patent US20260014184A1, “ADENOSINE DERIVATIVES FOR USE IN THE TREATMENT OF NEURODEGENERATIVE DISORDERS AND CANCER” (UNIVERSITY COLLEGE CARDIFF CONSULTANTS LIMITED, priority 2022, published 2026).

What was measured:
PINK1 [1] = molecular target: T1, PINK1 (Homo sapiens, UniProt Q9BXM7); experiment: PINK1 activation in cells judged by parkin Ser65 phosphorylation (parkin-transfected HeLa cells); type: cell-based; settings: 50 μM, 1 h
T1 construct: HeLa cells, which express PINK1 endogenously; endogenous in cells; host or cells: HeLa cells transiently transfected with parkin
T1 sequence (Q9BXM7 78-581): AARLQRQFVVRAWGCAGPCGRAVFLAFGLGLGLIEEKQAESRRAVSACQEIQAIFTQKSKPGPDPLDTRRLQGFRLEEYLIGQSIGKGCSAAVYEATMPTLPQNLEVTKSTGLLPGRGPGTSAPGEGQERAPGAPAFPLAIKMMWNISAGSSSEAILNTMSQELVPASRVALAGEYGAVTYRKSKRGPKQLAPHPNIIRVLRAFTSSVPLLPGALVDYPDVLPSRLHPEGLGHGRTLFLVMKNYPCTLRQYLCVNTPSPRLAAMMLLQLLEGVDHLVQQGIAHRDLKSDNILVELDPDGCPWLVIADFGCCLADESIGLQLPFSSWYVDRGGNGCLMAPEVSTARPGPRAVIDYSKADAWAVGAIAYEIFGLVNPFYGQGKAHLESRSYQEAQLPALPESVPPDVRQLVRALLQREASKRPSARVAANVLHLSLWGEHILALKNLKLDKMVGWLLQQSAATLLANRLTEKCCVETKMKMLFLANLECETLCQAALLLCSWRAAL
Experimental: (§1) Both HeLa and parkin-overexpressed HeLa cells were maintained in DMEM high glucose (Gibco), 10% FBS (Sigma-Aldrich) at 37° C. with 5% CO2. For experiments, cells were counted and seeded into a range of culture plates, depending on the experiment, cell counting was done using the Cellometer Auto T4 with TrypanBlue (Gibco). […] Alternatively, HeLa cells were seeded in well plates and then transfected with […] of parkin cDNA using the PEI method once the plated cells reached 60% confluency. After 6 hours, the media was changed. Sub-culturing was done when the cells reached ˜90% confluency.
(§2) Cell culture with 70-80% confluency was lysed as follows: cells were washed with Phosphate Buffer Saline (PBS) (Sigma). 150 μl of lysis buffer was used on each well containing either: • 50 mM Tris-HCl pH 7.5, 1 mM EDTA, 1 mM EGTA, 0.27 M sucrose, 1 mM Na3VO4, 50 mM NaF, 5 mM Na pyrophosphate and fresh 1 mM benzamidine, 1% NP-40 and […]; or • 50 mM Tris-HCl pH 7.5, 1 mM EDTA, 1 mM EGTA, 10 mM Na β-glycerophosphate, 0.27 M sucrose, 1 mM Na3VO4, 50 mM NaF, 10 mM Na pyrophosphate with fresh 1 mM benzamidine, 1% Triton X-100, complete EDTA-free Protease Inhibitor, Phosphatase inhibitor cocktail 3 and 100 μM of 2-chloroacetamide.
(§3) The cells were scrapped and transferred to the microtube and eventually spun down at 12,000 rpm for 15 minutes at 4° C. Finally, the supernatant was transferred to the new microtubes and stored at −20° C. Protein concentration was measured using Bradford Assay. Serial concentrations 0.125; 0.25; 0.5 and 1 mg/ml of Bovine Serum Albumin (BSA) (Sigma Aldrich) were used as a standard. Samples were boiled at 90° C. for 5 minutes in SDS sample loading buffer.

Ub Ser65 phosphorylation = experiment: Immunofluorescence for Ub Ser65 phosphorylation in YFP-parkin transfected HeLa cells; type: cell-based; settings: immunofluorescence; for impact on ubiquitin phosphorylation, compound alone: 50 μM, 24 h, no niclosamide or CCCP
Experimental: (§4) Cells were seeded on PerkinElmer PhenoPlate 96-well plates, followed by treatment with compounds. Cells were fixed in chilled 4% PFA for 10 min followed by washes in PBS. […] Following PBS washes, cells were blocked using blocking buffer (PBS, 5% BSA, 0.1% Tween20) for 1 h at room temperature. Primary antibodies were diluted in blocking buffer and added to cells to be incubated overnight at 4° C. Cells were subsequently washed with PBS-T and the appropriate secondary antibodies (diluted in blocking buffer) were added for 2 h at room temperature in darkness. 10 μg/ml of Hoechst 33258 stain was added with secondary antibodies when required. Cells were again washed with PBS-T followed by addition of PBS with 0.02% sodium azide. Cells were then stored at 4° C. until ready for imaging. Primary antibodies used for immunofluorescence are as follows: Phospho-Ub Ser 65 (Sigma-Aldrich cat #ABS1513-1), TOM20 (Santa-Cruz cat #sc-17764). Secondary antibodies and stains used in immunofluorescence; Anti-IgG2a Alexa Fluor™ 546 (ThermoFisher cat #A21133) Anti-rabbit Alexa Fluor™ 647 (ThermoFisher cat #A21244), Hoechst 33258 stain (Sigma-Aldrich cat #B2883).
(§5) Confocal microscopy was performed using a Zeiss LSM800 w/Airyscan fluorescent microscope equipped with lasers emitting at 405 nm, 488 nm, 561 nm and 640 nm. All images were captured using a 40x oil immersion objective lens and processed using Zeiss ZEN software. Images were analysed and quantified using Columbus (PerkinElmer) and TIBCO Spotfire software.
(§6) First, HeLa cells transfected with YFP-parkin were either left untreated or treated with 50 μM kinetin riboside, nucleosides 9a and 9c for 24 h.

[2] = system: ubiquitin Ser65 phosphorylation; experiment: Ubiquitin Ser65 phosphorylation in astrocytes with or without valinomycin; type: cell-based
Experimental: Briefly, astrocytes were treated with 50 μM of the nucleobase kinetin, nucleosides 9a and 9c or DMSO for 24 h and 5 h prior to lysis, the samples were treated with 50 nM valinomycin, a mitochondrial uncoupler.

[3] = system: HeLa cells transfected with YFP-parkin; experiment: Immunofluorescence for YFP-parkin localisation and TOM20 (mitochondrial fragmentation); type: cell-based; settings: for parkin localisation to the mitochondria after pre-treatment followed by CCCP, compared to CCCP alone: 50 μM 24 h, then 10 μM CCCP; for impact on mitochondrial fragmentation (TOM20), compound alone / impact on parkin localisation, compound alone: 50 μM, 24 h, no niclosamide or CCCP
Experimental: as §4, §5, §6

OPA1 = OPA1 cleavage immunoblot (mitochondrial membrane depolarization) in parkin-transfected HeLa cells; type: cell-based; settings: 50 μM 24 h, then 10 μM CCCP 3 h
Experimental: as §1, §2, §3
To explore this, we first treated parkin-transfected HeLa cells for 24 h with 50 μM kinetin, kinetin riboside or kinetin riboside ProTide, a monophosphate prodrug of kinetin riboside.

PINK1 [4] = molecular target: T1, PINK1; settings: evidenced by parkin Ser65 phosphorylation; cited from earlier work
[5] = system: HeLa cells transfected with YFP-parkin; experiment: TMRM fluorescence (mitochondrial membrane potential); type: cell-based; settings: pre-treatment 50 μM 24 h; data not shown
Experimental: For assessing tetramethylrhodamine methyl ester perchlorate (TMRM) fluorescence, cell media was removed and replaced with cell media consisting of 5 nM TMRM (ThermoFisher) and 10 μg/ml Hoechst 33258 stain for 30 mins in the dark at 37° C. to allow incorporation of TMRM into mitochondria. Following PBS washes, FluoroBrite DMEM (Gibco) media was added to cells, followed by subsequent imaging using a Zeiss LSM800 microscope at 37° C. with 5% CO2.

OC[C@H]1O[C@@H](n2cnc3c(NCc4ccccc4)ncnc32)[C@H](O)[C@@H]1O [9c, (2R,3R,4S,5R)-2-(6-(benzylamino)-9H-purin-9-yl)-5-(hydroxymethyl)tetrahydrofuran-3,4-diol]
activation of PINK1 as judged by parkin Ser65 phosphorylation (PINK1 [1]): low level activation of PINK1 | reduction in ubiquitin phosphorylation and parkin localisation compared with kinetin riboside (Ub Ser65 phosphorylation; 50 μM 24 h, then 10 μM CCCP): appears stronger than that induced by kinetin riboside | ubiquitin Ser65 phosphorylation after pre-treatment followed by CCCP, compared to CCCP alone (Ub Ser65 phosphorylation; 50 μM 24 h, then 10 μM CCCP): significant reduction | impact on ubiquitin phosphorylation, compound alone (Ub Ser65 phosphorylation): did not have any impact | ubiquitin Ser65 phosphorylation after pre-treatment followed by valinomycin, compared to valinomycin alone ([2]; 50 μM 24 h, 50 nM valinomycin for 5 h): significant suppression of ubiquitin Ser65 phosphorylation | ubiquitin Ser65 phosphorylation, compound alone ([2]; 50 μM, 24 h): increased phosphorylation | parkin localisation to the mitochondria after pre-treatment followed by CCCP, compared to CCCP alone [3]: significant reduction | impact on mitochondrial fragmentation (TOM20), compound alone [3]: did not have any impact | impact on parkin localisation, compound alone [3]: did not have any impact

OC[C@H]1O[C@@H](n2cnc3c(NCc4ccco4)ncnc32)[C@H](O)[C@@H]1O [kinetin riboside, N^6-(2-furanylmethyl) adenosine]
activation of PINK1 as judged by parkin Ser65 phosphorylation (PINK1 [1]): low level activation of PINK1 | ubiquitin Ser65 phosphorylation after pre-treatment followed by CCCP, compared to CCCP alone (Ub Ser65 phosphorylation; 50 μM 24 h, then 10 μM CCCP): inhibited | impact on ubiquitin phosphorylation, compound alone (Ub Ser65 phosphorylation): did not have any impact | inhibition of ubiquitin phosphorylation by pre-treatment (Ub Ser65 phosphorylation; YFP-parkin HeLa cells, 50 μM 24 h prior to 10 μM niclosamide or CCCP 1 h): inhibited ubiquitin phosphorylation | prevention of OPA1 cleavage by pre-treatment (OPA1): did not prevent this effect | parkin localisation to the mitochondria after pre-treatment followed by CCCP, compared to CCCP alone [3]: inhibition | impact on mitochondrial fragmentation (TOM20), compound alone [3]: did not have any impact | impact on parkin localisation, compound alone [3]: did not have any impact | CCCP-independent activation of PINK1 in cells, compared to kinetin (PINK1 [4]): more potent CCCP-independent activation of PINK1 | prevention of membrane potential collapse caused by niclosamide and CCCP [5]: did not prevent the membrane potential collapse
